Reference: patent US6316424A, “Sulfated phosphatidylinositols, their preparation and use of the same” (The Board of Trustees of the University of Illinois, priority 2000, dated 2001)
Structures can show the parent of a compound that is named as a salt.

Key:
HIV-1 virus = test: In vitro anti-HIV activity, XTT/formazan cell viability protection (NCI, method of Gustafson et al.); type: cell-based, HIV-1 (human lymphoblastoid cells); conditions: Human immunodeficiency virus 1, 168 h; Table 3; 7 days; PSL values normalized to SPI content
Procedure: A number of formulations of SPI and PSLs were prepared and their in vitro anti-HIV activity determined by the National Cancer Institute at the National Institutes of Health, Bethesda, Md., using the method of Gustafson et al, J. Nat. Can. Inst., 81(16), 1254-1258 (1989). Varying concentrations of each formulation were mixed with cultured human lymphoblastoid cells, then cocultivated with host cells chronically infected with HIV-1 virus at 37° C. After 7 days, the cell culture is incubated with a mixture of tetrazolium salt XTT and phenazine methylsulfate for 4 hours. […] Formazan absorbs visible light at 450 nm. Therefore, the amount of formazan produced is a direct measurement of cell viability and, consequently, an estimate of the anti-HIV activity of each formulation. Formazan production in normal, uninfected cells is labelled as control.
In particular, the following compositions were assayed for anti-HIV activity. The data and effective concentration (ED50), i.e., the minimum concentration that protects 50% of the cells against infection, of each composition are summarized in FIGS. 5-7 and the results summarized in Table 3. Control values were obtained by incubating lymphoblastoid cells with each formulation in the absence of HIV. […]

[1] = Surface tension / critical micelle concentration (Fisher Scientific Surface Tensiometer); type: physicochemical
Procedure: The surface activity of SPI also was determined. In this test, dilutions of SPI were prepared and the surface tension of each solution measured using a Fisher Scientific Surface Tensiometer. The critical micelle concentration (CMC) of SPI was estimated as the minimum concentration at which the surface tension remains constant. For SPI, the CMC is about 0.10 mg/mL. […] Accordingly, the addition of sulfate groups to PI alters its aqueous behavior, shifting the tendency of the phospholipid from forming vesicles to forming micelles.

Molecule | EC50 (HIV-1 virus) [µg/mL] | behavior on addition of water (in words) [1] | surface activity (in words) ([1]; surface tension measurements, compared with SPI)
CC(C)Nc1cccnc1N1CCN(C(=O)c2cc3cc(NS(C)(=O)=O)ccc3[nH]2)CC1 [Delaviridine, Delaviridine mesylate, reference compound] | 0.031 |  | 
phosphatidylinositol [PI] |  | formation of phosphatidylinositol liposomes | no similar surface activity
